pEC50, pIC50, pKi: −log10 of the molar value.
Columns and labels:
[1] = tested on: Human immunodeficiency virus 1; experiment: Inhibitory concentration against HIV-1 strain 111B in acutely infected C8166 T cells; type: functional, organism-based; settings: Human immunodeficiency virus 1, C8166
C8166 = experiment: Inhibitory concentration against HIV-2 rod strain in acutely infected C8166 T cells; type: functional, cell-based; settings: Homo sapiens
[2] = molecular target: T1, Human immunodeficiency virus type 1 protease (Human immunodeficiency virus 1, UniProt Q72874); experiment: Inhibitory concentration against recombinant HIV-1 111B protease expressed from Escherichia coli was tested by HPLC based assay
[3] = molecular target: T1, Human immunodeficiency virus type 1 protease; experiment: binding affinity against HIV-1 111B strain in protease
[4] = molecular target: T1, Human immunodeficiency virus type 1 protease; experiment: Inhibitory concentration against recombinant HIV-1 protease expressed in Escherichia coli was tested by HPLC based assay
[5] = molecular target: T1, Human immunodeficiency virus type 1 protease; experiment: binding affinity against HIV-1 protease

Row | Compound | pEC50 [1] | pIC50 [4] | also measured
1 | CC(C)[C@H](NC(=O)c1ccc2ccccc2n1)C(=O)N[C@@H](Cc1ccccc1)[C@H](O)CN1CC[C@@H](OCc2ccncc2)C[C@H]1C(=O)NC(C)(C)C | 8.30 |  | pEC50 (C8166): 7.60; pIC50 [2]: 8.40; pKi [3]: 10.51
2 | CCC(CC)NC(=O)C[C@@H](C(=O)NC[C@@H](O)[C@H](Cc1ccccc1)NC(=O)[C@@H](NC(=O)c1cnc2ccccc2n1)[C@H](C)O)C(C)(C)C | 7.89 | 8.52 | 
3 | CCC(CC)NC(=O)C[C@@H](C(=O)NC[C@@H](O)[C@H](Cc1ccccc1)NC(=O)[C@@H](NC(=O)c1ccc2ccccc2n1)[C@H](C)O)C(C)(C)C | 8.15 | 8.44 | 
4 | CCC(CC)NC(=O)C[C@@H](C(=O)NC[C@@H](O)[C@H](Cc1ccccc1)NC(=O)[C@@H](NC(=O)OCc1ccccc1)[C@H](C)O)C(C)(C)C | 6.78 | 8.09 | 
5 | CC(C)[C@H](NC(=O)OCc1ccccc1)C(=O)N[C@@H](Cc1ccccc1)[C@H](O)CN1CCCC[C@H]1C(=O)NC(C)(C)C |  | 7.21 | 
6 | CC(C)[C@H](NC(=O)OCc1ccccc1)C(=O)N[C@@H](Cc1ccccc1)[C@H](O)CNC(=O)C[C@H](C(=O)NC(C)(C)C)C(C)(C)C |  | 5.31 | 
7 | CCC(CC)NC(=O)C[C@@H](C(=O)NC[C@@H](O)[C@H](Cc1ccccc1)NC(=O)[C@@H](NC(=O)c1ccc2ccccc2n1)C(C)C)C(C)(C)C | 8.43 | 8.60 | pKi [5]: 11.12
8 | CC(C)[C@H](NC(=O)OCc1ccccc1)C(=O)N[C@@H](Cc1ccccc1)[C@H](O)CNC(=O)[C@@H](CC(=O)NC(C)(C)C)C(C)(C)C |  | 7.60 | 
9 | CC(C)(C)[C@@H](CC(=O)Nc1ccccc1)C(=O)NC[C@@H](O)[C@H](Cc1ccccc1)NC(=O)OCc1ccccc1 |  | 7.85 | 
10 | CC(C)[C@H](NC(=O)OCc1ccccc1)C(=O)N[C@@H](Cc1ccccc1)[C@H](O)CNC(=O)C1CCCC[C@H]1C(=O)NC(C)(C)C (some centres undefined) |  | 6.85 | 
11 | CC(C)(C)[C@@H](CC(=O)NC1CCCCC1)C(=O)NC[C@@H](O)[C@H](Cc1ccccc1)NC(=O)OCc1ccccc1 |  | 6.87 | 
12 | CCC(CC)NC(=O)C[C@@H](C(=O)NC[C@@H](O)[C@H](Cc1ccccc1)NC(=O)[C@H](CC(N)=O)NC(=O)c1ccc2ccccc2n1)C(C)(C)C | 7.96 | 8.66 | 
13 | CCC(CC)NC(=O)C[C@@H](C(=O)NC[C@@H](O)[C@H](Cc1ccccc1)NC(=O)[C@@H](NC(=O)c1cnc2ccccc2n1)C(C)C)C(C)(C)C | 8.24 | 8.66 | 
14 | CC(C)[C@H](NC(=O)OCc1ccccc1)C(=O)N[C@@H](Cc1ccccc1)[C@H](O)CNC(=O)CCC(=O)NC(C)(C)C |  | 5.08 | 
15 | CCCC(CCC)NC(=O)C[C@@H](C(=O)NC[C@@H](O)[C@H](Cc1ccccc1)NC(=O)OCc1ccccc1)C(C)(C)C |  | 7.41 | 
16 | CC(C)[C@H](NC(=O)OCc1ccccc1)C(=O)N[C@@H](Cc1ccccc1)[C@H](O)CNC(=O)[C@H](CC(=O)NC(C)(C)C)C(C)(C)C | 7.82 | 8.52 | 
17 | CCC(CC)NC(=O)C[C@@H](C(=O)NC[C@@H](O)[C@H](Cc1ccccc1)NC(=O)[C@@H](NC(=O)OCc1ccccc1)C(C)C)C(C)(C)C | 8.03 | 8.54 | 
18 | CCC(CC)NC(=O)C[C@@H](C(=O)NC[C@@H](O)[C@H](Cc1ccccc1)NC(=O)OCc1ccccc1)C(C)(C)C |  | 7.82 | 
19 | CC(C)[C@H](NC(=O)OCc1ccccc1)C(=O)N[C@@H](Cc1ccccc1)[C@H](O)CNC(=O)C[C@@H](C(=O)NC(C)(C)C)C(C)(C)C |  | 6.90 | 
20 | CC(C)(C)NC(=O)C[C@@H](C(=O)NC[C@@H](O)[C@H](Cc1ccccc1)NC(=O)OCc1ccccc1)C(C)(C)C |  | 7.72 | 
21 | CCC(CC)NC(=O)C[C@@H](C(=O)NC[C@@H](O)[C@H](Cc1ccccc1)NC(=O)[C@H](CC(N)=O)NC(=O)OCc1ccccc1)C(C)(C)C | 6.90 | 8.42 | 
22 | CC(C)[C@H](NC(=O)OCc1ccccc1)C(=O)N[C@@H](Cc1ccccc1)[C@@H](O)CNC(=O)[C@H](CC(=O)NC(C)(C)C)C(C)(C)C |  | 7.30 | 
23 | CCC(CC)NC(=O)C[C@@H](C(=O)NC[C@@H](O)[C@H](Cc1ccccc1)NC(=O)[C@H](CC(N)=O)NC(=O)c1cnc2ccccc2n1)C(C)(C)C | 7.46 | 8.72 | 
24 | CC(C)C(NC(=O)C[C@@H](C(=O)NC[C@@H](O)[C@H](Cc1ccccc1)NC(=O)OCc1ccccc1)C(C)(C)C)C(C)C |  | 7.24 | 
25 | CC(C)NC(=O)C[C@@H](C(=O)NC[C@@H](O)[C@H](Cc1ccccc1)NC(=O)OCc1ccccc1)C(C)(C)C |  | 7.72 | 
